From patent US20250205259A1, “CLASS OF 7-((FIVE-MEMBERED HETEROCYCLIC)METHYL)-8-CARBOXYLIC ACID-BENZO CYCLIC BORATE DERIVATIVES AND USES THEREOF” (priority 2022, published 2025)
Where two headings read alike, the source gives them in different places.

Experiments:
Assay type in all cases: biochemical
OXA-48 = OXA-48 (Klebsiella pneumoniae, UniProt Q6XEC0); assay: Inhibitory activity on SBL, fluorescent substrate FC-5; settings: for inhibitory activity on OXA-48 compared to avibactam: comparison in words
VIM-2 = VIM-2 (Escherichia coli, UniProt Q5U7L7); assay: Inhibitory activity on MBL, fluorescent substrate FC-5; settings: read-out: Inhibitory activity on MBL VIM-2 (IC50 class)
NDM-1 = NDM-1 (Klebsiella pneumoniae, UniProt C7C422); assay: as above
IMP-1 = IMP-1 (Serratia marcescens, UniProt P52699); assay: as above
CTX-M-14 = CTX-M-14 (Escherichia coli, UniProt Q9L5C7); assay: Inhibitory activity on SBL, fluorescent substrate FC-5; settings: for IC50: read-out: Inhibitory activity on SBL CTX-M-14 (IC50 class); for inhibitory activity on CTX-M-14 compared to avibactam: comparison in words
NDM-5 = NDM-5 (Klebsiella pneumoniae, UniProt C7C422, M154L/V88L); assay: Inhibitory activity on MBL, fluorescent substrate FC-5
VIM-1 = VIM-1 (Pseudomonas aeruginosa, UniProt A0A0F7KYQ8); assay: as above
KPC-2 = KPC-2 (Klebsiella pneumoniae, UniProt Q9F663); assay: Inhibitory activity on SBL, fluorescent substrate FC-5; settings: for inhibitory activity on KPC-2 compared to avibactam: comparison in words
TEM-1 = TEM-1 (Escherichia coli, UniProt P62593); assay: as above; settings: for IC50: read-out: Inhibitory activity on SBL TEM-1 (IC50 class); for inhibitory activity on TEM-1 compared to avibactam: comparison in words
[1] = read-out: Inhibitory activity on SBL OXA-48 (IC50 class)
[2] = read-out: Inhibitory activity on MBL NDM-1 (IC50 class)
[3] = read-out: Inhibitory activity on MBL IMP-1 (IC50 class)
[4] = read-out: Inhibitory activity on MBL NDM-5 (IC50 class)
[5] = read-out: Inhibitory activity on MBL VIM-1 (IC50 class)
[6] = read-out: Inhibitory activity on SBL KPC-2 (IC50 class)
[7] = salts, read-out: inhibitory activity at a nanomolar-level on KPC-2
[8] = IMP-1 and/or IMP-4, read-out: inhibitory activity at a nanomolar-level on IMP-1 and/or IMP-4
[9] = VIM-1 and/or VIM-2, read-out: inhibitory activity at a nanomolar-level on VIM-1 and/or VIM-2
[10] = salts, read-out: inhibitory activity at a nanomolar-level on OXA-48
[11] = read-out: inhibitory activity at a nanomolar-level on NDM-1
[12] = read-out: inhibitory activity at a nanomolar-level on NDM-5

Sequence of NDM-1 (C7C422 29-270 limits assumed): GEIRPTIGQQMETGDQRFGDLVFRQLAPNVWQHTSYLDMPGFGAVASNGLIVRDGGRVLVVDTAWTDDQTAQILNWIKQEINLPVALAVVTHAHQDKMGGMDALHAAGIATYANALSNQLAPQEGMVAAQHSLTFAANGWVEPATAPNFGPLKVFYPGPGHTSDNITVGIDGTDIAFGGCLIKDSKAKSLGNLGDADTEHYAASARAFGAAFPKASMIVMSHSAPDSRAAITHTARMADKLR
Sequence of CTX-M-14 (Q9L5C7 entry or part of it): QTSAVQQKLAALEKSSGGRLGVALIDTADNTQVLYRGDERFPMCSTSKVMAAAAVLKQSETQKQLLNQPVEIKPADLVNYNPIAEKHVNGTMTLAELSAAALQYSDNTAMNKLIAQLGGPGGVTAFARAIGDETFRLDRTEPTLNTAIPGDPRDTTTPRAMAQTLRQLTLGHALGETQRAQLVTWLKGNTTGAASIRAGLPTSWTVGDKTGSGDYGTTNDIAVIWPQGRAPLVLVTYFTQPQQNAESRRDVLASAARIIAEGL
Sequence of NDM-5 (C7C422 29-270 V88L/M154L): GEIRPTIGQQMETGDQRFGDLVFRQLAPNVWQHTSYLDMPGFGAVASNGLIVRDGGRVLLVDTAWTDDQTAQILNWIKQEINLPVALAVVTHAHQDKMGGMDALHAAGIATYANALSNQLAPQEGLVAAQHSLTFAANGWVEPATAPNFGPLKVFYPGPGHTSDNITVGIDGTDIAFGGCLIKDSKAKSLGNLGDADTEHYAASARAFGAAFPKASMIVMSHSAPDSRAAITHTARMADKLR
Sequence of OXA-48 (Q6XEC0 23-265 limits assumed): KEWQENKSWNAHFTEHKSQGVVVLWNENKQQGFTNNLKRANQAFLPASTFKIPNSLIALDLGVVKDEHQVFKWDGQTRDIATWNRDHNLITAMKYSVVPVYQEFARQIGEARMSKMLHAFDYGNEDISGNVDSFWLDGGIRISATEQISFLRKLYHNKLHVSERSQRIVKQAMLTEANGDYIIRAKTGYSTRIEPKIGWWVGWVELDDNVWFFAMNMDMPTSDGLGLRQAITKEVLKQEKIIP
Sequence of IMP-1 (P52699 19-246 limits assumed): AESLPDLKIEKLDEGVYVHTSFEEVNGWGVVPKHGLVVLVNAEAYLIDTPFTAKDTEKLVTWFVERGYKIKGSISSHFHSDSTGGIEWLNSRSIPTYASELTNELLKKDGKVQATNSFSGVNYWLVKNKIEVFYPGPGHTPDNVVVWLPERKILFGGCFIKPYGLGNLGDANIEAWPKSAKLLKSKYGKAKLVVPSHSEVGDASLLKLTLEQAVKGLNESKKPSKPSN
Sequence of KPC-2 (Q9F663 25-293 limits assumed): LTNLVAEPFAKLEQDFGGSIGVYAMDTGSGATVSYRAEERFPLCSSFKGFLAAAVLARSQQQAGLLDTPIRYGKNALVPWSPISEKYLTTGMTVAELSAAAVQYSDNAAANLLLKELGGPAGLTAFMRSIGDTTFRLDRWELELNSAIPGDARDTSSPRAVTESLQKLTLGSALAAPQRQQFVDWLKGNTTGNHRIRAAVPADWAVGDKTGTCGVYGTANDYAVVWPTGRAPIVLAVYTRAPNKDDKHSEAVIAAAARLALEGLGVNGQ
Sequence of TEM-1 (P62593 24-286 limits assumed): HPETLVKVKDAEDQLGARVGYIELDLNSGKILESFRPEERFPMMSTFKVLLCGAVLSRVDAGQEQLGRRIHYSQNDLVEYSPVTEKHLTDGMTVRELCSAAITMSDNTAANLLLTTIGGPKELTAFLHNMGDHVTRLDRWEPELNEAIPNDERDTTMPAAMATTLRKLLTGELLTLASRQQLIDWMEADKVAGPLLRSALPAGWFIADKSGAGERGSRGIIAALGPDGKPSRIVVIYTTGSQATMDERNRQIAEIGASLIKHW

Row | SMILES | IC50 (OXA-48; [1]) [µM] | IC50 (VIM-2) [µM] | IC50 (NDM-1; [2]) [µM] | IC50 (IMP-1; [3]) [µM] | IC50 (CTX-M-14) [µM] | IC50 (NDM-5; [4]) [µM] | IC50 (VIM-1; [5]) [µM] | IC50 (KPC-2; [6]) [µM] | IC50 (TEM-1) [µM] | IC50 (KPC-2; [7]) [µM] | IC50 (IMP-1; [8]) [µM] | IC50 (VIM-1; [9]) [µM] | IC50 (OXA-48; [10]) [µM] | inhibitory activity on OXA-48 compared to avibactam (OXA-48) | IC50 (NDM-1; [11]) [µM] | inhibitory activity on CTX-M-14 compared to avibactam (CTX-M-14) | IC50 (NDM-5; [12]) [µM] | inhibitory activity on KPC-2 compared to avibactam (KPC-2) | inhibitory activity on TEM-1 compared to avibactam (TEM-1)
1 | CO[C@H]1Cc2ccc(Cn3cc(CN)cn3)c(C(=O)O)c2OB1O [Compound 69] | 1 to 100 | 0.01 to 1 | 0.01 to 1 | 1 to 100 | 1 to 100 | 1 to 100 | 1 to 100 | 1 to 100 | 1 to 100 |  |  |  |  |  |  |  |  |  | 
2 | NCCc1cnn(Cc2ccc3c(c2C(=O)O)OB(O)CC3)c1 [Compound 43] |  |  |  |  |  |  |  | < 0.01 |  |  |  |  |  |  |  |  |  |  | 
3 | NC1(c2cn(Cc3ccc4c(c3C(=O)O)OB(O)CC4)nn2)CC1 [41-propionic acid] |  |  |  |  |  |  |  |  |  | < 0.01 |  |  |  |  |  |  |  |  | 
4 | O=C(O)c1c(Cn2ccnn2)ccc2c1OB(O)C1CC21 (stereo not drawn) [Compound 28] | 0.01 to 1 | 0.01 to 1 | 1 to 100 | 0.01 to 1 | 0.01 to 1 | 1 to 100 | 0.01 to 1 | < 0.01 | 0.01 to 1 |  | < 1 | < 1 |  |  |  |  |  |  | 
5 | NCc1ccc(-c2cn(Cc3ccc4c(c3C(=O)O)OB(O)CC4)nn2)cc1 [Compound 63-Na] |  |  |  |  |  |  |  |  |  | < 0.01 |  |  | < 0.01 |  |  |  |  |  | 
6 | Nc1ccc(-c2cn(Cc3ccc4c(c3C(=O)O)OB(O)CC4)nn2)cn1 [Compound 60] | < 0.01 | 0.01 to 1 | 0.01 to 1 | 0.01 to 1 | 0.01 to 1 | 0.01 to 1 | 0.01 to 1 | < 0.01 | 0.01 to 1 |  | < 1 | < 1 |  | better or comparable | < 1 | better or comparable | < 1 | better or comparable | better or comparable
7 | N[C@H]1CC(=O)N(Cc2ccc3c(c2C(=O)O)OB(O)CC3)C1 [Compound 45] | 0.01 to 1 | 1 to 100 | 1 to 100 | 1 to 100 | 0.01 to 1 | 1 to 100 | 1 to 100 | 0.01 to 1 | 0.01 to 1 |  |  |  |  |  |  |  |  |  | 
8 | CC(N)c1cnn(Cc2ccc3c(c2C(=O)O)OB(O)CC3)c1 (stereo not drawn) [Compound 39] | 0.01 to 1 | 1 to 100 | 1 to 100 | 1 to 100 | 0.01 to 1 | 1 to 100 | 1 to 100 | < 0.01 | 0.01 to 1 |  |  |  |  |  |  |  |  |  | 
9 | N=C(N)N1Cc2cn(Cc3ccc4c(c3C(=O)O)OB(O)CC4)nc2C1 [58-toluene sulfonic acid] |  |  |  |  |  |  |  |  |  | < 0.01 |  |  | < 0.01 |  |  |  |  |  | 
10 | Nc1ncc(-c2cn(Cc3ccc4c(c3C(=O)O)OB(O)CC4)nn2)cn1 [Compound 61] | < 0.01 | 0.01 to 1 | 0.01 to 1 | 0.01 to 1 | 0.01 to 1 | 0.01 to 1 | 0.01 to 1 | < 0.01 | 0.01 to 1 |  | < 1 | < 1 |  | better or comparable | < 1 | better or comparable | < 1 | better or comparable | better or comparable
11 | O=C(O)c1c(Cn2cc3c(n2)CNC3)ccc2c1OB(O)C=C2 [Compound 52] | 1 to 100 | 1 to 100 | 1 to 100 | 1 to 100 | 1 to 100 | 1 to 100 | 1 to 100 | 1 to 100 | 1 to 100 |  |  |  |  |  |  |  |  |  | 
12 | C[C@H]1Cc2ccc(Cn3ccnn3)c(C(=O)O)c2OB1O [Compound 29] | 0.01 to 1 | 0.01 to 1 | 0.01 to 1 | 0.01 to 1 | 0.01 to 1 | 0.01 to 1 | 0.01 to 1 | < 0.01 | 0.01 to 1 |  | < 1 | < 1 |  |  | < 1 |  | < 1 |  | 
13 | N=C(N)N1Cc2cn(Cc3ccc4c(c3C(=O)O)OB(O)CC4)nc2C1 [Compound 58] | < 0.01 |  |  |  |  |  |  | < 0.01 | < 0.01 |  |  |  |  |  |  |  |  |  | 
14 | N=C(N)NCc1ccc(-c2cn(Cc3ccc4c(c3C(=O)O)OB(O)CC4)nn2)cc1 [64-citric acid] |  |  |  |  |  |  |  |  |  | < 0.01 |  |  | < 0.01 |  |  |  |  |  | 
